The test system of data set [1] is different types of blood cancer. The conditions noted are these: cited from earlier work.
Data set [2] has as its system Colon 38 (C38, a C57BL/6J mouse colon adenocarcinoma cell line) tumor. Description: C38 (Colon 38) subcutaneous tumor model, tumor volume. It is filed as in vivo. The conditions noted are these: female C57BL/6J mice, 20 per group; 4SC-202 20 mg/kg PO twice daily x24; antibodies 10 mg/kg IP (anti-PD1 TWx2, anti-LAG-3 Q3Dx4); data to day 27. As for the experimental part: • 4SC-202 (tosylate salt). • Anti-PD1 antibody (clone: RMP1-14, catalog: BE0146, isotype: Rat IgG2a, Bioxcell), • Anti-LAG-3 antibody (clone: C9B7W, catalog: BE0174, isotype: Rat lgG1, Bioxcell),
• 4SC-202 was suspended in 2% aqueous methocel solution at 2 mg/ml (active compound). • Anti-PD-1 and anti-LAG3 antibody was diluted with PBS in order to reach final concentration of 1 mg/ml.
• 4SC-202 was administered at 20 mg/kg twice daily, based on 4SC-202 free base. • The anti-PD-1 and anti-LAG3 antibody was injected at 10 mg/kg per injection,
• 4SC-202 was administered by oral gavage (per os, PO) via a gavage tube. • The antibodies were injected intraperitoneally into the peritoneal cavity of mice. • In all cases, the administration volume was 10 mUkg adjusted to the most recent individual body weight of mice.
Colon 38 (C38, a C57BL/6J mouse colon adenocarcinoma cell line) tumor fragments.
The C38 fragments are stored frozen in DMSO/SVF/RPMI 1640 medium (10/10/80) in liquid nitrogen until use. In the study part 1, C38 frozen fragments were thawed at 37° C. for 5 min, rinsed twice in RPMI 1640 medium before subcutaneous (SC) implantation in mice.
Thirty-five (35) female C57BL/6J mice were subcutaneously implanted into the right flank with C38 tumor fragments. […]

The mark [3] stands for this setting: 24 heavily pre-treated patients with different types of blood cancer.

Structures are written as SMILES.

We go through one compound from patent US20230201161A1, “Combination comprising HDAC inhibitor, LAG-3 inhibitor and a PD-1 inhibitor or PD-L1 inhibitor for cancer treatment” (4SC AG, priority 2018, published 2023).

As for `Cn1cc(-c2ccc(S(=O)(=O)n3ccc(/C=C/C(=O)Nc4ccccc4N)c3)cc2)cn1` [Compound 4SC-202, (E)-N-(2-aminophenyl)-3-(1-((4-(1-methyl-1H-pyrazol-4-yl)phenyl)sulfonyl)-1H-pyrrol-3-yl)acrylamide], in data set [1] (setting [3]), the disease control is recorded as 83 % of the patients, the long-term stabilization was 50 % of patients and the tolerability result was “well tolerated with few and/or manageable adverse events”. Moreover, in data set [1] (one complete remission among 24 heavily pre-treated patients), the “complete remission, duration” value is 28 months. Further, in data set [1] (one partial responder among 24 heavily pre-treated patients), the “partial responder, duration” value is 8 months. In addition, the “tumor growth reduction / anti-tumoral efficacy (in words)” value in data set [2] was “reduced tumor growth to a certain extent”.
